Experimental data from US4267184A, “Antiinflammatory 4,5-diaryl-2-(substituted-thio)pyrroles and their corresponding sulfoxides and sulfones” (E. I. Du Pont de Nemours and Company, priority 1980, dated 1981).

How the values were obtained:
[1] = test system: Adjuvant-Induced Arthritis in Rats; assay: Established Adjuvant-Induced Arthritis in Rats; assay type: in vivo, Charles River Lewis male rats; details: Rattus norvegicus; for ED50: 168 h, oral gavage daily for 7 days, ED50% decrease from control paw volume
Procedure: A procedure for detecting and comparing the antiinflammatory activity of compounds in this series and standard drugs for which there is a good correlation with human efficacy is the adjuvant-induced arthritis test in rats.
(§1) The test procedures employed for determining antiinflammatory and analgesic activity are described below with test data included in Tables VII and VIII.
Charles River Lewis male rats (130-150 grams) are injected subcutaneously in plantar area of the right hind paw with 0.1 ml of adjuvant (Difco heat-killed, lyophilized Mycobacterium butyricum suspended in mineral oil 5 mg/ml). 20 Non-arthritic controls are injected with mineral oil. The animals are held for 2 weeks to allow development of arthritis. Paw volumes (uninjected, left hind paw) are measured and the adjuvant injected rats are culled and distributed to treatment groups of 10 of equal disease severity. Non-arthritic controls are distributed to 2 groups of 10. The rats are given oral doses of compound or PVA-Acacia (Polyvinyl Alcohol 1%, Gum Acacia, U.S.P. 5%, Methylparaben 0.5%) (10 ml/kg) by gavage on that day and on the 6 following days. One day after the last dose the paw volumes (uninjected, left hind paw) are measured using a Ugo Basile Volume Differential Meter Model 7101. [formula]
Dose-response regression lines of the % decrease are plotted on semi-log paper by visual fit and the ED50% decrease from control paw volume is determined by inspection.

[2] = test system: phenylquinone writhing in mice; assay: Phenylquinone Writhing Test (analgesic activity); assay type: in vivo, female white mice; details: Mus musculus, oral, phenylquinone i.p., effective analgesic dose for 50% of the mice
Source text: A procedure for detecting and comparing the analgesic activity of compounds in this series and standard drugs for which there is a good correlation with human efficacy is the phenylquinone writhing test.
as §1
The phenylquinone writhing test, modified from Siegmund, et al., Proc. Soc. Exp. Biol. Med. 95, 729 (1957), was employed. A test compound suspended in 1% methylcellulose was given orally to fasted (17-21 hours) female white mice, 5-20 animals per double blind test. Aqueous (0.01% phenyl-p-benzoquinone) phenylquinone was injected intraperitoneally at 24 minutes later using 0.20 ml per mouse. […] The effective analgesic dose for 50% of the mice (ED50) was calculated by the moving average method of Thompson, W. R., Bact. Rev. 11, 115-145 (1947).

[3] = Table VII, oral, read-out: percent reduction in paw volume at the indicated dose

| SMILES | ED50 ([2]; Table VII) [mg/kg] | ED50 ([1]; Table VII) [mg/kg] | other results |
| --- | --- | --- | --- |
| CCOc1ccc(-c2[nH]c([S+]([O-])C(F)(F)F)cc2-c2ccc(F)cc2)cc1 (stereo not drawn) [Example 61] | > 130 | – | inhibition in vivo at 9 mg/kg ([1]; Table VII, oral, dose 9 mg/kg, read-out: percent reduction in paw volume at the indicated dose): 14% |
| CS(=O)(=O)c1cc(-c2ccc(Cl)cc2)c(-c2ccc(Cl)cc2)[nH]1 [Example 62] | > 108 | 1.5 | – |
| CCOc1ccc(-c2[nH]c(S(C)(=O)=O)cc2-c2ccc(F)cc2)cc1 [Example 63] | > 108 | – | inhibition in vivo at 25 mg/kg ([1]; Table VII, oral, dose 25 mg/kg, read-out: percent reduction in paw volume at the indicated dose): 34% |
| CS(=O)(=O)c1cc(-c2ccc(F)cc2)c(-c2ccc(F)cc2)[nH]1 [Example 64] | > 108 | – | inhibition in vivo at 27 mg/kg [1, 3]: 25% |
| CCS(=O)(=O)c1cc(-c2ccc(Cl)cc2)c(-c2ccc(Cl)cc2)[nH]1 [Example 65] | > 108 | – | inhibition in vivo at 27 mg/kg [1, 3]: 23% |
| CS(=O)(=O)c1cc(-c2ccc(Cl)cc2)c(-c2ccc(F)cc2)[nH]1 [Example 66] | > 135 | 27 | – |
| CS(=O)(=O)c1cc(-c2ccc(F)cc2)c(-c2ccc(Cl)cc2)[nH]1 [Example 67] | 38 | 50 | – |
| COc1ccc(-c2[nH]c(S(C)(=O)=O)cc2-c2ccc(F)cc2)cc1 [Example 68] | 18 | – | inhibition in vivo at 27 mg/kg [1, 3]: 34% |
| COc1ccc(-c2[nH]c(S(C)(=O)=O)cc2-c2ccc(Cl)cc2)cc1 [Example 69] | 38 | 13 | – |
| CS(=O)(=O)c1cc(-c2ccc(Cl)cc2)c(-c2ccccc2)[nH]1 [Example 71] | > 108 | – | inhibition in vivo at 27 mg/kg [1, 3]: 23% |
| Cc1ccc(-c2cc(S(C)(=O)=O)[nH]c2-c2ccc(C)cc2)cc1 [Example 72] | 7.2 | 90 | – |
| CC(=O)n1c(SC(F)(F)F)cc(-c2ccc(F)cc2)c1-c1ccc(F)cc1 [Example 73, 1-Acetyl-4,5-bis(4-fluorophenyl)-2-(trifluoromethylthio)pyrrole] | – | – | ED50 ([1]; Table VIII): 4 mg/kg; ED50 ([2]; Table VIII): > 108 mg/kg |
| Cn1c(SC(F)(F)F)cc(-c2ccc(F)cc2)c1-c1ccc(F)cc1 [Example 74, 1-Methyl-4,5-bis(4-fluorophenyl)-2-(trifluoromethylthio)pyrrole] | – | – | ED50 ([1]; Table VIII): 1.1 mg/kg; ED50 ([2]; Table VIII): > 108 mg/kg |
| CCOC(=O)n1c(SC(F)(F)F)cc(-c2ccc(F)cc2)c1-c1ccc(F)cc1 [Example 75, 1-Ethoxycarbonyl-4,5-bis(4-fluorophenyl)-2-(trifluoromethylthio)pyrrole] | – | – | ED50 ([1]; Table VIII): 1.9 mg/kg; ED50 ([2]; Table VIII): > 108 mg/kg |
| O=C(c1ccccc1)n1c(SC(F)(F)F)cc(-c2ccc(F)cc2)c1-c1ccc(F)cc1 [Example 76, 1-Benzoyl-4,5-bis(4-fluorophenyl)-2-(trifluoromethylthio)pyrrole] | – | – | ED50 ([1]; Table VIII): 6.6 mg/kg; ED50 ([2]; Table VIII): > 108 mg/kg |
